This is an account of results in patent US20220274911A1, “ARYLPROPIONIC ACID DERIVATIVE, PHARMACEUTICAL COMPOSITION AND PREPARATION METHOD AND APPLICATION THEREOF” (NANJING HERON PHARMACEUTICAL SCIENCE AND TECHNOLOGY CO., …, priority 2020, published 2022).

Data set [1] in a line: Metabolism of the compound in human plasma (hydrolysis to the active metabolite). The note with it: in vitro human plasma; for Remaining Amount of the Prodrug Compound (%): 37° C., 200 rpm, time point of the tabulated value not stated (samples at 0, 15, 30, 60 and 120 min). Type of data set: in vitro ADME. On the procedure: (1) 40 mM pure acetonitrile stock solutions of Compound 1, Compound 7 and Compound a were prepared;
(2) the stock solution (25 μL) of Compound a was mixed with 1 mL of human plasma and vortexed for 30 s, a sample (200 μL) was added to 800 μL of acetonitrile to precipitate proteins and vortexed for 1 min, and then the reaction was stopped as a control of an active metabolite of loxoprofen; and 40 mM stock solutions of Compound 1 and Compound 7 were diluted 200 times as prodrug controls;
(4) the pure acetonitrile stock solution (100 μL) of each of Compound 1 and Compound 7 was mixed with 4 mL of human plasma, vortexed for 30 s, and oscillated at 200 rpm in an oscillating water bath heater with a constant temperature of 37° C.;
(5) samples (200 μL) were taken at different time points (0, 15, 30, 60 and 120 min) with three samples at each time point, added with 800 μL of acetonitrile to precipitate proteins and vortexed for 1 min, and then the reaction was stopped; and a blank plasma control was obtained in the same manner;
(6) the samples were centrifuged at 12000 rpm for 10 min at 4° C., the supernatant was taken and injected at a volume of 30 μL (through a filter membrane), and changes of a peak area were recorded;
(7) hydrolysis rates of Compound 1 and Compound 7 were observed and analyzed.

Data set [2] can be described thus: Solubility of the active metabolite of loxoprofen. Type of data set: physicochemical.
A short description of data set [3]: Physicochemical stability of the active metabolite of loxoprofen. As to conditions: high temperature, high humidity, cold white fluorescent lamp and ultraviolet lamp.

On to `CCOC(=O)OC(C)OC(=O)[C@@H](C)c1ccc(C[C@H]2CCC[C@@H]2O)cc1` (some centres unmarked) [Compound 1], for which, in data set [1], the “transformation into the active metabolite” value was “rapidly transformed into the active metabolite” and the “Remaining Amount of the Prodrug Compound (%)” value is listed as 35.41% ± 1.83%.
With `CC(=O)OC(C)OC(=O)[C@@H](C)c1ccc(C[C@H]2CCC[C@@H]2O)cc1` (some centres unmarked) [Compound 7], in data set [1], the “transformation into the active metabolite” value is given as “rapidly transformed into the active metabolite” and the “Remaining Amount of the Prodrug Compound (%)” value is 21.41% ± 0.49%. The metabolic rate result in data set [1] (compared with Compound 1) is “slightly faster than that of Compound 1 without a significant difference”.
Take `C[C@H](C(=O)O)c1ccc(C[C@H]2CCC[C@@H]2O)cc1` [Compound a, (S)-2-(4-(((1R, 2S)-2-hydroxycyclopentyl)methyl)phenyl)propionic acid]: the solubility entry in data set [2] (in a slightly alkaline aqueous solution) is recorded as “soluble”; in data set [2] (in pure water), “low solubility”. In addition, the physicochemical stability entry in data set [3] was “poor physicochemical stability”.
